Laboratory results published in US20080096967A1, “Formulations for Injection of Catecholic Butanes, Including Ndga Compounds, Into Animals” (priority 2005, published 2008).

Tested on: HeLa, an HPV-18 positive human cervical cancer cell line
Experiment: Cell proliferation and cell death, trypan blue exclusion, HeLa cells
Assay type: cell-based
Description: M4N in 10% (w/v) HP-β-CD and 25% (v/v) PEG 300 (hereafter, the “CPE formulation”), M4N in 30% (w/v) HP-β-CD and 25% (v/v) PEG 300 (hereafter, the “CPE 25/30 formulation”) and M4N in 27% (w/v) HP-β-CD and 33% (v/v) PEG 300 (hereafter, the “CPE 33/27 formulation”) was tested for their effects on cell death and proliferation on two different tumor cell lines: HeLa, an HPV-18 positive human cervical cancer cell line, and C-33A, an HPV-negative human cervical cancer cell line M4N in DMSO was also tested in parallel. Both tumor cell lines were treated with increasing amounts of M4N: 0 μM, 20 μM, 40 μM, 60 μM and 80 μM, for 72 hr with the DMSO or the CPE formulation. Each formulation was added to total 1% of the growth media (Minimal Essential Medium with L-glutamine supplemented with 10% fetal bovine serum, 1 mM sodium pyruvate, 1× non-essential amino acid solution, and 1,000 IU/mL penicillin/1,000 μg/mL streptomycin solution). Control cells were grown under the same conditions and were left untreated. After 72 hr of treatment or no treatment, the total number of cells and the number of live cells in each sample were counted, using the trypan blue exclusion method. The cell proliferation rate and the percentage of dead cells in each sample were analyzed. Results of this experiment are shown in FIG. 1, FIG. 2, and Tables 6 through 12.
FIG. 1 is a graphical representation of the ratio of the number of treated cells/number of untreated cells plotted against increasing concentrations of M4N in either the DMSO formulation or the CPE formulation for treatment of the C-33A cells and HeLa cells. FIG. 2 is a graphical representation of the percentage of dead cells plotted against increasing concentrations of M4N and in either DMSO formulation or the CPE formulation for treatment of the two cancer cell lines, C-33A and HeLa cells in culture.
Various lots of M4N were tested to show the effectiveness of the drug of different lots. HeLa cells were treated with increasing amounts of M4N: 0 μM, 20 μM, 40 μM, 60 μM and 80 μM, for 72 hr with the CPE formulation. Each formulation was added to total 1% of the growth media (Minimal Essential Medium with L-glutamine supplemented with 10% fetal bovine serum, 1 mM sodium pyruvate, 1× non-essential amino acid solution, and 1,000 IU/mL penicillin/1,000 μg/mL streptomycin solution). Control cells were grown under the same conditions and were left untreated. After 72 hr of treatment or no treatment, the total number of cells and the number of live cells in each sample were counted, using the trypan blue exclusion method. The cell proliferation rate and the percentage of dead cells in each sample were analyzed.

[1] = M4N 20 μM in CPE 25/30 formulation, 72 hr
[2] = M4N 20 μM in CPE 25/30 formulation, 72 hr, at 3 months
[3] = M4N 20 μM in CPE 33/27 formulation, 72 hr, time zero
[4] = M4N 20 μM in CPE formulation, 72 hr, at 3 months
[5] = M4N 20 μM in CPE formulation, 72 hr, at 9 months
[6] = M4N 20 μM in CPE formulation, 72 hr, at 12 months
[7] = M4N 20 μM in CPE formulation, 72 hr, comparison with CPE 25/30
[8] = M4N 20 μM in CPE formulation, 72 hr, time 0
[9] = M4N 20 μM in CPE formulation, 72 hr, time zero, comparison with CPE 33/27
[10] = M4N 20 μM in DMSO, 72 hr, at 9 months
[11] = M4N 20 μM in DMSO, 72 hr, at 12 months
[12] = M4N 20 μM in DMSO, 72 hr, time 0
[13] = M4N 40 μM in CPE 25/30 formulation, 72 hr
[14] = M4N 40 μM in CPE 25/30 formulation, 72 hr, at 3 months
[15] = M4N 40 μM in CPE 33/27 formulation, 72 hr, time zero
[16] = M4N 40 μM in CPE formulation, 72 hr, at 3 months
[17] = M4N 40 μM in CPE formulation, 72 hr, at 9 months
[18] = M4N 40 μM in CPE formulation, 72 hr, at 12 months
[19] = M4N 40 μM in CPE formulation, 72 hr, comparison with CPE 25/30
[20] = M4N 40 μM in CPE formulation, 72 hr, time 0
[21] = M4N 40 μM in CPE formulation, 72 hr, time zero, comparison with CPE 33/27
[22] = M4N 40 μM in DMSO, 72 hr, at 9 months
[23] = M4N 40 μM in DMSO, 72 hr, at 12 months
[24] = M4N 40 μM in DMSO, 72 hr, time 0
[25] = M4N 60 μM in CPE 25/30 formulation, 72 hr
[26] = M4N 60 μM in CPE 25/30 formulation, 72 hr, at 3 months
[27] = M4N 60 μM in CPE 33/27 formulation, 72 hr, time zero
[28] = M4N 60 μM in CPE formulation, 72 hr, at 3 months
[29] = M4N 60 μM in CPE formulation, 72 hr, at 9 months
[30] = M4N 60 μM in CPE formulation, 72 hr, at 12 months
[31] = M4N 60 μM in CPE formulation, 72 hr, comparison with CPE 25/30
[32] = M4N 60 μM in CPE formulation, 72 hr, time 0
[33] = M4N 60 μM in CPE formulation, 72 hr, time zero, comparison with CPE 33/27
[34] = M4N 60 μM in DMSO, 72 hr, at 9 months
[35] = M4N 60 μM in DMSO, 72 hr, at 12 months
[36] = M4N 60 μM in DMSO, 72 hr, time 0
[37] = M4N 80 μM in CPE 25/30 formulation, 72 hr
[38] = M4N 80 μM in CPE 25/30 formulation, 72 hr, at 3 months
[39] = M4N 80 μM in CPE 33/27 formulation, 72 hr, time zero
[40] = M4N 80 μM in CPE formulation, 72 hr, at 3 months
[41] = M4N 80 μM in CPE formulation, 72 hr, at 9 months
[42] = M4N 80 μM in CPE formulation, 72 hr, at 12 months
[43] = M4N 80 μM in CPE formulation, 72 hr, comparison with CPE 25/30
[44] = M4N 80 μM in CPE formulation, 72 hr, time 0
[45] = M4N 80 μM in CPE formulation, 72 hr, time zero, comparison with CPE 33/27
[46] = M4N 80 μM in DMSO, 72 hr, at 9 months
[47] = M4N 80 μM in DMSO, 72 hr, at 12 months
[48] = M4N 80 μM in DMSO, 72 hr, time 0
[49] = M4N lot EM1001, 20 μM in CPE formulation, 72 hr
[50] = M4N lot EM1001, 40 μM in CPE formulation, 72 hr
[51] = M4N lot EM1001, 60 μM in CPE formulation, 72 hr
[52] = M4N lot EM1001, 80 μM in CPE formulation, 72 hr
[53] = M4N lot EM1002, 20 μM in CPE formulation, 72 hr
[54] = M4N lot EM1002, 40 μM in CPE formulation, 72 hr
[55] = M4N lot EM1002, 60 μM in CPE formulation, 72 hr
[56] = M4N lot EM1002, 80 μM in CPE formulation, 72 hr

Q: What does the source list for `COc1ccc(C[C@@H](C)[C@@H](C)Cc2ccc(OC)c(OC)c2)cc1OC` [Formulation M4N, meso-1,4-bis(3,4-dimethoxyphenyl)-2,3-dimethylbutane]?
A: cell death, share of the cell population (80 μM or […] M4N in CPE formulation): about 20%; cell death, share of the cell population (80 μM or […] M4N in DMSO formulation): about 40%; M4N sufficient to cause about a 50% inhibition in cell proliferation (CPE formulation, 72 hr): ~7.2 µg/mL; effectiveness of the drug of different lots (CPE formulation, lots EM1001 and EM1002): remains the same; % Dead Cells [1]: 9.4%; % Viability [1]: 90.7%; Proliferation Rate [1]: 0.34; % Dead Cells [2]: 11.9%; % Viability [2]: 88.1%; Proliferation Rate [2]: 0.39; % Dead Cells [3]: 10.9%; % Viability [3]: 89.2%; Proliferation Rate [3]: 0.43; % Dead Cells [4]: 9.0%; % Viability [4]: 91.0%; Proliferation Rate [4]: 0.39; % Dead Cells [5]: 31.3%; % Viability [5]: 68.7%; Proliferation Rate [5]: 0.24; % Dead Cells [6]: 3.3%; % Viability [6]: 96.8%; Proliferation Rate [6]: 0.74; % Dead Cells [7]: 6.6%; % Viability [7]: 93.5%; Proliferation Rate [7]: 0.33; % Dead Cells [8]: 4.4%; % Viability [8]: 95.6%; Proliferation Rate [8]: 0.52; % Dead Cells [9]: 11.9%; % Viability [9]: 88.1%; Proliferation Rate [9]: 0.35; % Dead Cells [10]: 10.7%; % Viability [10]: 89.3%; Proliferation Rate [10]: 0.19; % Dead Cells [11]: 12.6%; % Viability [11]: 87.4%; Proliferation Rate [11]: 0.23; % Dead Cells [12]: 9.9%; % Viability [12]: 90.1%; Proliferation Rate [12]: 0.25; % Dead Cells [13]: 11.0%; % Viability [13]: 89.1%; Proliferation Rate [13]: 0.31; % Dead Cells [14]: 13.4%; % Viability [14]: 86.6%; Proliferation Rate [14]: 0.32; % Dead Cells [15]: 13.6%; % Viability [15]: 86.4%; Proliferation Rate [15]: 0.19; % Dead Cells [16]: 16.5%; % Viability [16]: 83.5%; Proliferation Rate [16]: 0.09; % Dead Cells [17]: 27.2%; % Viability [17]: 72.8%; Proliferation Rate [17]: 0.10; % Dead Cells [18]: 5.0%; % Viability [18]: 95.0%; Proliferation Rate [18]: 0.21; % Dead Cells [19]: 23.4%; % Viability [19]: 76.7%; Proliferation Rate [19]: 0.08; % Dead Cells [20]: 9.4%; % Viability [20]: 90.6%; Proliferation Rate [20]: 0.28; % Dead Cells [21]: 25.9%; % Viability [21]: 74.2%; Proliferation Rate [21]: 0.14; % Dead Cells [22]: 8.8%; % Viability [22]: 91.2%; Proliferation Rate [22]: 0.14; % Dead Cells [23]: 13.7%; % Viability [23]: 86.4%; Proliferation Rate [23]: 0.04; % Dead Cells [24]: 13.2%; % Viability [24]: 86.8%; Proliferation Rate [24]: 0.25; % Dead Cells [25]: 22.8%; % Viability [25]: 77.3%; Proliferation Rate [25]: 0.12; % Dead Cells [26]: 23.1%; % Viability [26]: 76.9%; Proliferation Rate [26]: 0.11; % Dead Cells [27]: 29.3%; % Viability [27]: 70.7%; Proliferation Rate [27]: 0.10; % Dead Cells [28]: 43.1%; % Viability [28]: 56.9%; Proliferation Rate [28]: 0.03; % Dead Cells [29]: 13.6%; % Viability [29]: 86.4%; Proliferation Rate [29]: 0.09; % Dead Cells [30]: 25.0%; % Viability [30]: 75.0%; Proliferation Rate [30]: 0.05; % Dead Cells [31]: 55.6%; % Viability [31]: 44.5%; Proliferation Rate [31]: 0.03; % Dead Cells [32]: 19.6%; % Viability [32]: 80.4%; Proliferation Rate [32]: 0.13; % Dead Cells [33]: 26.2%; % Viability [33]: 73.9%; Proliferation Rate [33]: 0.10; % Dead Cells [34]: 32.5%; % Viability [34]: 67.5%; Proliferation Rate [34]: 0.03; % Dead Cells [35]: 35.4%; % Viability [35]: 64.6%; Proliferation Rate [35]: 0.04; % Dead Cells [36]: 36.1%; % Viability [36]: 63.9%; Proliferation Rate [36]: 0.13; % Dead Cells [37]: 45.2%; % Viability [37]: 54.8%; Proliferation Rate [37]: 0.07; % Dead Cells [38]: 35.6%; % Viability [38]: 64.4%; Proliferation Rate [38]: 0.04; % Dead Cells [39]: 25.0%; % Viability [39]: 75.0%; Proliferation Rate [39]: 0.09; % Dead Cells [40]: 29.0%; % Viability [40]: 71.0%; Proliferation Rate [40]: 0.03; % Dead Cells [41]: 11.9%; % Viability [41]: 88.1%; Proliferation Rate [41]: 0.08; % Dead Cells [42]: 47.2%; % Viability [42]: 52.8%; Proliferation Rate [42]: 0.03; % Dead Cells [43]: 56.7%; % Viability [43]: 43.4%; Proliferation Rate [43]: 0.04; % Dead Cells [44]: 21.5%; % Viability [44]: 78.5%; Proliferation Rate [44]: 0.13; % Dead Cells [45]: 21.6%; % Viability [45]: 78.4%; Proliferation Rate [45]: 0.11; % Dead Cells [46]: 50.0%; % Viability [46]: 50.0%; Proliferation Rate [46]: 0.02; % Dead Cells [47]: 23.6%; % Viability [47]: 76.5%; Proliferation Rate [47]: 0.15; % Dead Cells [48]: 38.6%; % Viability [48]: 61.4%; Proliferation Rate [48]: 0.02; Cell proliferation rate (M4N in DMSO or CPE formulation vs non-M4N-treated controls in the same formulation): reduced; % Dead Cells [49]: 5.1%; % Viability [49]: 94.9%; Proliferation Rate [49]: 0.25; % Dead Cells [50]: 26.3%; % Viability [50]: 73.7%; Proliferation Rate [50]: 0.10; % Dead Cells [51]: 55.6%; % Viability [51]: 44.4%; Proliferation Rate [51]: 0.01; % Dead Cells [52]: 40.2%; % Viability [52]: 59.8%; Proliferation Rate [52]: 0.01; % Dead Cells [53]: 12.0%; % Viability [53]: 88.0%; Proliferation Rate [53]: 0.32; % Dead Cells [54]: 25.8%; % Viability [54]: 74.2%; Proliferation Rate [54]: 0.11; % Dead Cells [55]: 58.1%; % Viability [55]: 41.9%; Proliferation Rate [55]: 0.05; % Dead Cells [56]: 59.7%; % Viability [56]: 40.3%; Proliferation Rate [56]: 0.03; IC50 (read-out: M4N sufficient to cause about a 50% inhibition in cell proliferation, CPE formulation, 72 hr): ~20 µM
